Results on 4 molecules are retold here after patent US9241888B2, “Pharmaceutical or cosmetic composition for treating alopecia” (GIULIANI S.P.A., priority 2012, dated 2016).

Series [1] in a line: Reactivity: air oxidation, chemiluminometric determination of N-nitroso derivatives. Conditions: 2 mM aqueous solution diluted with water/ethanol (85/15), exposed to ambient air 72 h. Format: physicochemical. The text has this: The properties of 1,4-butanediamine,N-(3-aminopropyl)-N^1-methyl (II) and 1,4-butanediamine,N-(3-aminopropyl)-N^1-cyclohexyl (III) after exposure to air were studied by comparison with the corresponding non-substituted derivative, in which the N^1 amine group lacking the R substituent becomes a secondary amine group, namely 1,4-butanediamine,N-(3-aminopropyl). Since one of the common products of oxidation of the secondary amino group takes the form of the N-nitroso derivatives which are formed by reaction with the nitrogen oxides present in the air, the nitrosated derivatives which were formed upon leaving a solution of the test compounds in contact with the ambient air were determined as a parameter of reactivity.
The instrumentation used consisted of a stage on which both the analysis of the nitrite ions and the analysis of the N-nitrosamines were carried out, the latter under strong denitrosating conditions. The nitrogen oxide which developed in accordance with the amount of nitrite ions and that which developed in accordance with the quantity of nitroso groups were evaluated by way of a chemiluminometric detector.
The content of NO^2− ions was analysed using a reducing mixture of acetic acid/potassium iodide (5 ml/1 ml of 5% H2O soln.) at a temperature of 0-4° C. The nitroso groups were analysed using a denitrosating mixture of acetic acid/hydrobromic acid (5 ml/1 ml) at a temperature of 70° C.
The method for determining air oxidation of the compound was as follows.
a) a 2 mM solution of the test substance in purified water was doubly seeded, at an amount equal to 500 μl in appropriate wells of six-well plates of inert plastics material (polystyrene);
b) the solution in each well was diluted with 500 μl of a mixture of purified water and ethanol (85/15) free from contamination. This promotes the dispersion of the liquid film on the surface of the well;
c) the plate prepared in this manner is exposed to ambient air for 72 h
d) at the end of the exposure time, the residue in the well is eluted with 1 ml of purified water and then used for the chemiluminometric analysis.

A further series concerns NCTC2544 cells. Nature of the series: Antioxidant test: production of reactive oxygen species (ROS), DCFH-DA spectrofluorometry. The format is cell-based, human. To be noted: for Concentration of ROS products compared to control cells treated with H2O2: 1.5 h, α-tocopherol 250 μg/ml, spermidine and N-methylspermidine 1 nM-1 mM. On the procedure: The production of reactive oxygen species (ROS) was monitored by spectrofluorometry using 2′,7′-dichlorofluorescein diacetate (DCFH-DA) as described by Tobi et al. (Tobi S E, Paul N, T McMillan J. J Photochem. Photobiol, B 2000: 57: 102-112).
The aforementioned NCTC2544 cells (˜80% confluence) were detached with trypsin/EDTA and seeded at a density of 5×10^4 cells per well, in 96-well plates. Subsequently, the cells were treated with the N-methylspermidine according to the invention and spermidine. The following concentrations of N-methylspermidine and spermidine were tested: 1 nM, 500 nM, 1 μM, 500 μM, 1 mM (final concentration in the culture medium).
α-tocopherol (250 μg/ml) was used as a comparison. The plates were incubated at 37° C., in 5% CO2, for 1.5 h. The cells grown on basal medium with 10% FBS were used as a control.

Series [2] relates to hair follicles (HF) in anagen VI phase from human scalp skin. The series is described as follows: Hair shaft elongation test, ex vivo organ culture of hair follicles. The format is cell-based. To be noted: 0.5 μM, day 6; for Elongation of the hair shaft with respect to the vehicle: every 48 hours. Here is the method:
The activity of N-methylspermidine was tested in an ex vivo model which made it possible to measure the effect on the elongation of the hair shaft. The organ culture of hair follicles (HF) in anagen VI phase involved microdissection of HF from the skin of the human scalp (temporo-frontal area) after informed consent from the subjects who were undergoing surgery (face lifts), in accordance with the Helsinki Declaration and with the approval of the Ethics Committee of the University of Lübeck. […] For immunohistochemical studies, the isolated follicles were cultured for 6 consecutive days. Spermidine, N-methylspermidine and the vehicle (distilled water) were administered once for each change of culture medium (every 48 hours), at a concentration of 0.5 μM. The measurements of the shaft elongation after the treatment with vehicle, spermidine and N-methylspermidine were taken on days 0, 1, 4 and 6, using a Zeiss inverted binocular microscope with one eyepiece containing a reticle (Carl Zeiss, Oberkochen, Germany).

The test system is the same in series [3]. The series is described as follows: Anagen and catagen phases in the ex vivo hair follicle model. The format is cell-based. On the procedure:
The organ culture of hair follicles (HF) in anagen VI phase involved microdissection of HF from the skin of the human scalp (temporo-frontal area) after informed consent from the subjects who were undergoing surgery (face lifts), in accordance with the Helsinki Declaration and with the approval of the Ethics Committee of the University of Lübeck. […] For immunohistochemical studies, the isolated follicles were cultured for 6 consecutive days. Spermidine, N-methylspermidine and the vehicle (distilled water) were administered once for each change of culture medium (every 48 hours), at a concentration of 0.5 μM. The following results for the anagen and catagen phases, summarised in the graphs of FIGS. 5 and 6, were also obtained from the same ex vivo model of hair follicles (HF) described for the previous test of elongation of the hair shaft.

Series [4] concerns NCTC2544 human keratinocytes. The series is described as follows: MTT Assay (cell viability / cytotoxicity). Format: cell-based. To be noted: 1 nM, 500 nM, 24 or 48 hours exposure. The text has this:
MTT Assay is a test used for analysing cell viability (Mosmann, 1983). It is a colorimetric test based on the use of the tetrazolium salt MTT, which measures cell viability which can then be quantified by a microplate spectrophotometric reader. MTT (3-(4,5-dimethylthiazol-2-yl)-2,5-diphenyltetrazolium bromide, a tetrazole), a yellow compound, is reduced to formazan, a purple substance, in cellular mitochondria. The absorbance of this coloured solution can be quantified by measuring it at a given wavelength (570 nm) using a spectrophotometer. The maximum absorbance will depend on the solvent used. This reduction only takes place when the mitochondrial reductase enzymes are active, and the conversion to formazan can therefore be related directly to the number of viable cells. When the amount of formazan produced by cells treated with a substance is compared with the amount produced by untreated control cells, it is possible to deduce the efficacy of the tested substance in causing cell death by producing a dose-response curve. The solutions of MTT solubilised in PBS or cell culture medium, without phenol red, are of a yellowish colour. […] The resulting purple solution is analysed by spectrophotometry. An increase in the number of cells will result in an increase in the formazan obtained and in an increase in absorbance. […]

For the molecule `NCCCCN(CCCN)C1CCCCC1` [N-(3-aminopropyl)-N^1-cyclohexyl-1,4-butanediamine], in series [1], the “Nitroso derivatives after 72 h exposure” value is recorded as “absent”.

On to `CNCCCCNCCCN` [N-methylspermidine, N-(3-aminopropyl)-N′-methyl-1,4-butanediamine], for which the “Concentration of ROS products compared to control cells treated with H2O2” value in the series on NCTC2544 cells is “decrease in the concentration of ROS products”. Also, the “Antioxidant activity compared with that of spermidine” value with NCTC2544 cells (comparison with spermidine) was “no significant difference”. In addition, in series [2], the “Elongation of the hair shaft with respect to the vehicle” value is listed as “improve the elongation of the hair shaft significantly”; the “Difference in hair shaft elongation between spermidine and N-methylspermidine” value is “not statistically significant”. In addition, in series [3] (0.5 μM each, 6 days), the “Effect of prolonging the anagen phase, compared with spermidine” value is on record as “greater effect of prolonging the anagen phase” and the “Number of hairs entering the catagen phase, compared with spermidine” value is “significantly lower”. The “Follicles entering catagen spontaneously” value in series [3] (0.5 μM, after 6 days of treatment, vehicle more than 60%) was ~30%. Also, the “Percentage of hair follicles in the anagen phase” value in series [3] (0.5 μM, after 6 days of treatment, versus vehicle) is given as “significant increase”. Further, the “Nitroso derivatives after 72 h exposure” value in series [1] is listed as “absent”.

For `NCCCCNCCCN` [spermidine, N′-(3-aminopropyl)-1,4-diaminobutane, reference compound], the “Cytotoxic effects / cell viability in percent against the control” value in series [4] is “no cytotoxic effects”. In the series on NCTC2544 cells, the “Concentration of ROS products compared to control cells treated with H2O2” value is “decrease in the concentration of ROS products”. For the same molecule, the “Elongation of the hair shaft with respect to the vehicle” value in series [2] was “improve the elongation of the hair shaft significantly”. The “Nitroso derivatives after 72 h exposure” value in series [1] turned out to be 2.3 ppm.

Turning to `Cc1c(C)c2c(c(C)c1O)CC[C@@](C)(CCC[C@H](C)CCC[C@H](C)CCCC(C)C)O2` [α-tocopherol, reference compound], the “Concentration of ROS products compared to control cells treated with H2O2” value in the series with NCTC2544 cells is given as “decrease in the concentration of ROS products”.
